COC(C)(C)C [2-methoxy-2-methylpropane]
Liquid, Brillouin light scattering
Settings	speed of sound [m/s]
343.24 K, 10000 kPa	941
348.1 K, 5500 kPa	874.9
348.12 K, 7000 kPa	890.7
348.16 K, 4000 kPa	858.5
348.16 K, 8500 kPa	907.4
348.17 K, 10000 kPa	915.3
348.22 K, 1000 kPa	829.7
348.22 K, 2500 kPa	844.7
353.05 K, 5500 kPa	858.5
353.1 K, 7000 kPa	868.9
353.11 K, 10000 kPa	903.3
353.2 K, 2500 kPa	825.4
353.22 K, 4000 kPa	841.4
353.23 K, 8500 kPa	889.4
353.25 K, 1000 kPa	800
358.08 K, 7000 kPa	852.1
358.09 K, 5500 kPa	835.6
358.14 K, 8500 kPa	866.9
358.15 K, 1000 kPa	779.2
358.18 K, 10000 kPa	883.2
358.19 K, 2500 kPa	802.1
358.19 K, 4000 kPa	816.3
363.06 K, 1000 kPa	761.1
363.09 K, 2500 kPa	775.4
363.09 K, 5500 kPa	811.7
363.14 K, 7000 kPa	833.6
363.18 K, 8500 kPa	844.2
363.23 K, 4000 kPa	796.3
363.24 K, 10000 kPa	863.5
368.06 K, 5500 kPa	796.6
368.08 K, 10000 kPa	844.9
368.13 K, 7000 kPa	813
368.15 K, 1000 kPa	734.3
368.16 K, 4000 kPa	777
368.21 K, 8500 kPa	831.5
368.25 K, 2500 kPa	754.9
373.07 K, 1000 kPa	713.9
373.07 K, 10000 kPa	828.1
373.11 K, 8500 kPa	811.5
373.12 K, 5500 kPa	770.2
373.16 K, 4000 kPa	753.8
373.17 K, 2500 kPa	733.6
373.24 K, 7000 kPa	791.5
378.06 K, 4000 kPa	732.9
378.07 K, 5500 kPa	751.9
378.07 K, 7000 kPa	770.5
378.13 K, 2500 kPa	711.8
378.13 K, 8500 kPa	791.5
378.22 K, 1000 kPa	691.3
378.25 K, 10000 kPa	804
383.07 K, 1000 kPa	666.2
383.08 K, 4000 kPa	713
383.12 K, 2500 kPa	690.6
383.13 K, 7000 kPa	753.8
383.15 K, 8500 kPa	769.5
383.18 K, 5500 kPa	731.2
383.21 K, 10000 kPa	789.5
388.09 K, 5500 kPa	711.4
388.16 K, 7000 kPa	730.1
388.2 K, 4000 kPa	690

Settings	speed of sound [m/s]
348.24 K, Liquid, Brillouin Light Scattering	797.5
353.11 K, Liquid, Brillouin Light Scattering	781.5
358.22 K, Liquid, Brillouin Light Scattering	748.6
363.16 K, Liquid, Brillouin Light Scattering	727.1
368.17 K, Liquid, Brillouin Light Scattering	707.1
373.05 K, Liquid, Brillouin Light Scattering	698.9
378.05 K, Liquid, Brillouin Light Scattering	668.3
378.1 K, Gas, Brillouin light scattering	171.6
383.08 K, Liquid, Brillouin Light Scattering	646.4
388.11 K, Liquid, Brillouin Light Scattering	627.5
388.2 K, Gas, Brillouin light scattering	170.9

— the NIST ThermoML archive (doi:10.1021/acs.jced.6b00202)
